Source: patent US10081615B2, “Sulfamate derivative compounds for use in treating or alleviating pain” (Bio-Pharm Solutions Co., Ltd., priority 2013, dated 2018)
Like-named read-outs stand apart in the source and are kept apart here.

What was measured:
SNL model = assay: Antiallodynic activity in the Chung model (SNL, Spinal Nerve Ligation; von Frey); assay type: in vivo, Sprague-Dawley rats
Protocol: Male Sprague-Dawley rats (200-220 g, Orient Bio, Korea) were habituated for 1 week before the experiment and allowed free access to food and water throughout the experimentation. Room temperature and humidity were maintained at 24±2° C. and 50±10%, respectively. The neuropathic surgery (SNL, Spinal Nerve Ligation) model was done as described in Kim and Chung (1992). Briefly, an animal was put under gaseous anesthesia with isoflurane and NO2 with a 4:4 flow ratio. The left lumbar spinal nerves L5 and L6 were isolated and tightly ligated with 4-0 silk thread. The wound was treated with a gentamicin antibiotic solution (4 mg/kg, 4 ul/g by bodyweight), and the wound muscle was closed with Catgut® chrome 4/0 thread and the skin was closed with Dafilon 4/0 thread. Sham controls were prepared in the same manner with the spinal nerves were exposed, but no ligated L5 and L6 nerves. Preparation of the vehicle controls were identical to the group treated with compound, except for administration of vehicles without compound in the vehicle control group.
Tactile sensitivity (mechanical allodynia) was evaluated using von Frey monofilaments before and after treatment and animals the animals were included in the study only if the withdrawal threshold value was less than 4 g. One week after surgery, SNL-operated animals (n=4˜6), sham-operated animals (n=4˜10) and vehicle-operated animals (n=4˜13) were tested for tactile sensitivity with von Frey monofilaments with 3 trials in each animal. All animals were placed in a stainless steel mesh chamber and habituated for 30 min in the test cage. The tactile sensitivity for ipsilateral hind paw was measured using the up-and-down method (Dixon, 1980) with seven von Frey monofilaments (0.4, 1, 2, 4, 6, 8, and 15 g) in 3 trials. The tactile sensitivity test was followed by Dixon's method (Dixon, 1980). The 50% paw withdrawal threshold for each paw was calculated using the following formula: [Xth] log=[vFr] log+ky where [vFr] is the force of the last von Frey used, k=0.2249 which is the average interval (in log units) between the von Frey monofilaments, and y is a value that depends upon the pattern of withdrawal responses (Dixon, 1980).
All animals were fasted for 18 h before the administration of the compounds. The antiallodynic effect of the compounds were evaluated at the various doses (n=5˜6), orally administered in a volume of 5 ul/g by bodyweight in a vehicle of 30% (v/v) PEG 400 (Example 7) or 20% (v/v) Tween 80 (Examples 5 and 6) or saline. […]
The relative values compared to the sham group (% control) were calculated and are shown in Table 5, which show an antiallodynic effect of the test compounds in the SNL model in rats.

CFA-induced pain model = assay: Antiallodynic activity on Complete Freund's Adjuvant (CFA)-induced inflammatory pain model (von Frey); assay type: in vivo, Sprague-Dawley rats; conditions: ip, 0.5 h, read-out: CFA model: effect (%) compared to control; for response vs control in vivo at 25 mg/kg: 25 mg/kg administered
Protocol: Male, Sprague-Dawley rats (200-220 g, Nara Bio, Korea) were habituated for 1 week before surgery and allowed free access to food and water throughout the experimentation. Room temperature and humidity were maintained at 24±2° C. and 50±10%, respectively.
CFA-induced inflammatory pain was induced by the procedure of Nagakura et al. (2003) and Gregory P. et al. (2010) with minor modifications. CFA (sigma, USA) was injected into the left plantar with a 100 ul volume under gaseous anesthesia with isoflurane and NO2 with a 4:4 flow ratio. Sham controls were injected with 100 ul of saline and preparation of the vehicle controls were identical to the group treated with compound, except for administration of vehicles without compound in the vehicle control group.
Tactile sensitivity (mechanical allodynia) was evaluated using von Frey monofilaments before and after treatment, and the animals were included in the study only if the withdrawal threshold value was less than 4 g. One week after surgery, CFA-infused animals (n=4˜6), sham-operated animals (n=12), and vehicle-operated animals (n=17) were tested for tactile sensitivity with von Frey monofilaments, with 3 trials for each animal. All animals were placed in a stainless steel mesh chamber and habituated for 30 min in the test cage. The tactile sensitivity for the ipsilateral hind paw was measured using the up-and-down method (Dixon, 1980) with seven von Frey monofilaments (0.4, 1, 2, 4, 6, 8, and 15 g) in 3 trials. The tactile sensitivity test was followed by Dixon's method (Dixon, 1980). The 50% paw withdrawal threshold for each paw was calculated using the following formula: [Xth] log=[vFr] log+ky where [vFr] is the force of the last von Frey used, k=0.2249 which is the average interval (in log units) between the von Frey monofilaments, and y is a value that depends upon the pattern of the withdrawal responses (Dixon, 1980).
The antiallodynic effect of the compound of Example was evaluated at the doses of 10, 30 and 60 mg/kg (n=4˜6), and were intraperitoneally administered in a volume of 5 ul/g by bodyweight in a vehicle of 30% (v/v) PEG. […]
The relative values compared to the sham (% control) were calculated and are shown in Table 4, which show an antiallodynic effect of the compound of examples in the CFA-induced pain model in rats.

[1] = rat, intraperitoneal, 50 mg/kg administered
[2] = rat, oral, 3.5 mg/kg administered, time not given, read-out: SNL model: effect (%) compared to control

## CC1(C)Oc2ccccc2C(COS([NH-])(=O)=O)O1.[Na+] (stereo not drawn) (hydrate or solvate) [Example 60, Sodium (((2,2-dimethyl-4H-benzo[d][1,3]dioxin-4-yl)methoxy)sulfonyl)amide Trihydrate]
other
  melting point: 81 to 86 °C

## CC1(C)Oc2ccccc2[C@@H](COS([NH-])(=O)=O)O1.[Li+] [Example 73, Lithium (S)-(((2,2-dimethyl-4H-benzo[d][1,3]dioxin-4-yl)methoxy)sulfonyl)amide]
SNL model; rat, oral, 3.5 mg/kg administered, 0.5 h
  SNL model: effect (%) compared to control: (13.5%, 0.5 h)

## NS(=O)(=O)OCC1Cc2ccccc2OC2(CCCCC2)O1 (racemic) [Example 20, (4,5-dihydrospiro[benzo[d][1,3]dioxepine-2,1′-cyclohexan]-4-yl)methyl sulfamate]
CFA-induced pain model; [1]
  response vs control in vivo at 50 mg/kg: 69%

## NS(=O)(=O)OC[C@H]1OC2(CCCCC2)Oc2c(Cl)cccc21 [Example 35, ((S)-8-chloro-4H-spiro[benzo[d][1,3]dioxine-2,1′-cylcohexan]-4-yl)methyl sulfamate]
CFA-induced pain model; [1]
  response vs control in vivo at 50 mg/kg: 15.5%

## NS(=O)(=O)OCC1OC2(CCCCC2)Oc2ccc(Cl)cc21 (racemic) [Example 53, (6-chloro-4H-spiro[benzo[d][1,3]dioxine-2,1′-cyclohexan]-4-yl)methyl sulfamate]
CFA-induced pain model; rat, intraperitoneal
  response vs control in vivo at 25 mg/kg: 57.3%

## CCC1(CC)Oc2ccc(Cl)cc2C(COS(N)(=O)=O)O1 (racemic) [Example 51, (6-chloro-2,2-diethyl-4H-benzo[d][1,3]dioxin-4-yl)methyl sulfamate]
CFA-induced pain model; [1]
  response vs control in vivo at 50 mg/kg: 23.3%

## NS(=O)(=O)OC[C@H]1OC2(CCCC2)Oc2c(Cl)cccc21 [Example 32, ((S)-8-chloro-4H-spiro[benzo[d][1,3]dioxine-2,1′-cyclopentan]-4-yl)methyl sulfamate]
CFA-induced pain model; [1]
  response vs control in vivo at 50 mg/kg: 51.9%

## CC1(C)Oc2ccc(Cl)cc2C(COS(N)(=O)=O)O1 (racemic) [Example 48, (6-chloro-2,2-dimethyl-4H-benzo[d][1,3]dioxin-4-yl)methyl sulfamate]
CFA-induced pain model; [1]
  response vs control in vivo at 50 mg/kg: 21.7%

## CC1(C)Oc2ccccc2C(CCOS(N)(=O)=O)O1 (stereo not drawn) [Example 68, Sodium ((2-(2,2-dimethyl-4H-benzo[d][1,3]dioxin-4-yl)ethoxy)sulfonyl)amide]
SNL model; Rattus norvegicus, po, 0.5 h, read-out: SNL model: effect (%) compared to control, rat, oral, 3.5 mg/kg administered, 0.5 h
  response vs control in vivo at 3.5 mg/kg: 25%

## CCC1(CC)Oc2ccccc2CC(COS(N)(=O)=O)O1 (racemic) [Example 18, (2,2-diethyl-4,5-dihydrobenzo[d][1,3]dioxepin-4-yl)methyl sulfamate]
CFA-induced pain model; [1]
  response vs control in vivo at 50 mg/kg: 91.7%

## CC1(C)Oc2ccccc2CC(COS(N)(=O)=O)O1 (racemic) [Example 17, (2,2-dimethyl-4,5-dihydrobenzo[d][1,3]dioxepin-4-yl)methyl sulfamate]
SNL model; rat, oral, 3.5 mg/kg administered, 0.5 h, read-out: SNL model: effect (%) compared to control
  response vs control in vivo at 3.5 mg/kg: 16.8%

## NS(=O)(=O)OC[C@H]1OC2(CCCC2)Oc2ccccc21 [Example 8, ((S)-4H-spiro[benzo[d][1,d]dioxine-2,1′-cyclopentan]-4-yl)methyl sulfamate]
CFA-induced pain model; [1]
  response vs control in vivo at 50 mg/kg: 74.8%

## NS(=O)(=O)OC[C@@H]1OC2(CCCCC2)Oc2ccccc21 [Example 10, ((R)-4H-spiro[benzo[d][1,3]dioxine-2,1′-cylcohexan]-4-yl)methyl sulfamate]
CFA-induced pain model; rat, intraperitoneal
  response vs control in vivo at 25 mg/kg: 37.2%

## CCC1(CC)Oc2c(Cl)cccc2[C@@H](COS(N)(=O)=O)O1 [Example 29, ((S)-8-chloro-2,2-diethyl-4H-benzo[d][1,3]dioxin-4-yl)methyl sulfamate]
CFA-induced pain model; rat, intraperitoneal
  response vs control in vivo at 25 mg/kg: 43.9%

## CC1(C)Oc2ccc(Cl)cc2[C@H](COS(N)(=O)=O)O1 [Example 61, Sodium (R)-(((6-chloro-2,2-dimethyl-4H-benzo[d][1,3]dioxin-4-yl)methoxy)sulfonyl)amide]
SNL model; Rattus norvegicus, po, read-out: SNL model: effect (%) compared to control, rat, oral, 3.5 mg/kg administered, time not given
  response vs control in vivo at 3.5 mg/kg: 20.9%

## NS(=O)(=O)OCC1Cc2ccccc2OC2(CCCC2)O1 (racemic) [Example 19, (4,5-dihydrospiro[benzo[d][1,3]dioxepine-2,1′-cyclopentan]-4-yl)methyl sulfamate]
SNL model; [2]
  response vs control in vivo at 3.5 mg/kg: 33.3%

## CC1(C)Oc2ccccc2C(COS(N)(=O)=O)O1 (stereo not drawn) [Example 72, Potassium (((2,2-dimethyl-4H-benzo[d][1,3]dioxin-4-yl)methoxy)sulfonyl)amide]
CFA-induced pain model; Rattus norvegicus
  response vs control in vivo at 50 mg/kg: 67.1%

## CCC1(CC)Oc2ccccc2C(COS(N)(=O)=O)O1 (racemic) [Example 6, (2,2-diethyl-4H-benzo[d][1,3]dioxin-4-yl))methyl sulfamate]
CFA-induced pain model; [1]
  response vs control in vivo at 50 mg/kg: 64.6%

## CC1(C)Oc2ccc(F)cc2C(COS(N)(=O)=O)O1 (racemic) [Example 54, (6-fluoro-2,2-dimethyl-4H-benzo[d][1,3]dioxin-4-yl)methyl sulfamate]
CFA-induced pain model; rat, intraperitoneal
  response vs control in vivo at 25 mg/kg: 82.9%

## NS(=O)(=O)OCCC1OC2(CCCCC2)Oc2ccccc21 (racemic) [Example 16, 2-(4H-spiro[benzo[d][1.3]dioxine-2,1′-cyclohexan]-4-yl)ethyl sulfamate]
CFA-induced pain model; [1]
  response vs control in vivo at 50 mg/kg: 38.9%

## COc1ccc2c(c1)C(COS(N)(=O)=O)OC(C)(C)O2 (racemic) [Example 57, (6-methoxy-2,2-dimethyl-4H-benzo[d][1,3]dioxin-4-yl)methyl sulfamate]
CFA-induced pain model; rat, intraperitoneal
  response vs control in vivo at 25 mg/kg: 39.1%

## CC1(C)Oc2ccc(Cl)cc2[C@H](COS(N)(=O)=O)O1 [Example 46, ((R)-6-chloro-2,2-dimethyl-4H-benzo[d][1,3]dioxin-4-yl)methyl sulfamate]
CFA-induced pain model; [1]
  response vs control in vivo at 50 mg/kg: 36.4%

## CC1(C)Oc2ccc(Cl)cc2[C@@H](COS(N)(=O)=O)O1 [Example 47, ((S)-6-chloro-2,2-dimethyl-4H-benzo[d][1,3]dioxin-4-yl)methyl sulfamate]
CFA-induced pain model; [1]
  response vs control in vivo at 50 mg/kg: 100%

## CCC1(CC)Oc2ccccc2C(CCOS(N)(=O)=O)O1 (racemic) [Example 14, 2-(2,2-diethyl-4H-benzo[d][1.3]dioxin-4-yl)ethyl sulfamate]
SNL model; [2]
  response vs control in vivo at 3.5 mg/kg: 37.9%

## CC1(C)Oc2c(Cl)cccc2[C@@H](COS(N)(=O)=O)O1 [Example 26, ((S)-8-chloro-2,2-dimethyl-4H-benzo[d][1,3]dioxin-4-yl)methyl sulfamate]
CFA-induced pain model; [1]
  response vs control in vivo at 50 mg/kg: 34.2%

## CC1(C)Oc2ccccc2[C@@H](COS([NH-])(=O)=O)O1.[Na+] (hydrate or solvate) [Example 59, Sodium (S)-(((2,2-dimethyl-4H-benzo[d][1,3]dioxin-4-yl)methoxy)sulfonyl)amide Trihydrate]
other
  melting point: 51.2 to 52.2 °C

## CC1(C)Oc2cc(Cl)ccc2C(COS(N)(=O)=O)O1 (racemic) [Example 45, (7-chloro-2,2-dimethyl-4H-benzo[d][1,3]dioxin-4-yl)methyl sulfamate]
CFA-induced pain model; [1]
  response vs control in vivo at 50 mg/kg: 33.1%
